{
  "source": "patent US20040171045A1",
  "about": "“Assay for predicting cell activity” (IsoTis N.V., priority 2001, published 2004)",
  "test_system": "human bone marrow stromal cells (HBMSC)",
  "assay": "Temporal expression of ALP in HBMSC cultures by flow cytometry, (+) dex versus control medium",
  "type": "cell-based",
  "conditions": "10^−8 M dex, average of day 3 to day 9",
  "experimental": "The expression of ALP was evaluated by flow cytometry at several culture periods (from day 1 to day 9, three to four measurements were performed for each culture). Briefly, after trypsinisation, cells were washed twice in wash buffer and blocked against non-specific binding (see above). Cells (approx. 0.1-0.3E6/staining) were then resuspended in blocking buffer containing: (a) control mouse anti-human IgG2a (1:5 dilution) and (b) ALP monoclonal antibody (1:10 dilution). After incubation on ice for 45 minutes and washing, antibody reactivity was detected by suspending the cells with blocking buffer containing goat anti-mouse IgGγ-chain-specific-FITC (1:5 dilution). Cells were incubated on ice and in the dark for 30 minutes. After washing, the cells were resuspended in 200 μl of FACS-flow/staining and analyzed using a FACS Calibur apparatus (Becton Dickinson Immunocytometry systems). For each measurement 10,000 events were collected.",
  "data": [
    {"smiles": "C[C@@H]1C[C@H]2[C@@H]3CCC4=CC(=O)C=C[C@]4(C)[C@@]3(F)[C@@H](O)C[C@]2(C)[C@@]1(O)C(=O)CO", "note": "[dex, dexamethasone]", "values": [
      {"measurement": "Ratio between the fraction of ALP+ cells in the (+) dex and control conditions", "setting": "Donor 1 (U00079)", "value": 1.53},
      {"measurement": "Ratio between the fraction of ALP+ cells in the (+) dex and control conditions", "setting": "Donor 2 (U00084)", "value": 1.53},
      {"measurement": "Ratio between the fraction of ALP+ cells in the (+) dex and control conditions", "setting": "Donor 3 (U00169)", "value": 1.40},
      {"measurement": "Ratio between the fraction of ALP+ cells in the (+) dex and control conditions", "setting": "Donor 4 (U00182-2)", "value": 2.71},
      {"measurement": "Ratio between the fraction of ALP+ cells in the (+) dex and control conditions", "setting": "Donor 5 (U00212)", "value": 2.53},
      {"measurement": "Ratio between the fraction of ALP+ cells in the (+) dex and control conditions", "setting": "Donor 6 (U00230)", "value": 1.52},
      {"measurement": "Ratio between the fraction of ALP+ cells in the (+) dex and control conditions", "setting": "Donor 7 (U00106)", "value": 1.25},
      {"measurement": "Ratio between the fraction of ALP+ cells in the (+) dex and control conditions", "setting": "Donor 8 (U00173)", "value": 3.72},
      {"measurement": "Ratio between the fraction of ALP+ cells in the (+) dex and control conditions", "setting": "Donor 9 (U00174)", "value": 1.56},
      {"measurement": "Ratio between the fraction of ALP+ cells in the (+) dex and control conditions", "setting": "Donor 11 (U00179)", "value": 2.40},
      {"measurement": "Ratio between the fraction of ALP+ cells in the (+) dex and control conditions", "setting": "Donor 12 (U00090)", "value": 2.56},
      {"measurement": "Ratio between the fraction of ALP+ cells in the (+) dex and control conditions", "setting": "Donor 13 (U00180)", "value": 1.55},
      {"measurement": "Ratio between the fraction of ALP+ cells in the (+) dex and control conditions", "setting": "Donor 14 (U00091)", "value": 1.80}
    ]}
  ]
}
